Assay results: patent publication US8609661B2, “Pyrimido-pyrrolo-quinoxalinedione inhibitors of cystic fibrosis transmembrane conductance regulator protein and uses therefor” (The Regents of the University of California, priority 2009, dated 2013)

Columns and labels:
[1] = target: T1, human wildtype CFTR (Homo sapiens, UniProt P13569); experiment: Fluorescence platereader assay of CFTR-mediated iodide influx (YFP quenching) in FRT cells; type: cell-based
T1 construct: expressed in transfected cells; host or cells: Fischer rat thyroid (FRT) cells
T1 sequence (P13569 whole entry): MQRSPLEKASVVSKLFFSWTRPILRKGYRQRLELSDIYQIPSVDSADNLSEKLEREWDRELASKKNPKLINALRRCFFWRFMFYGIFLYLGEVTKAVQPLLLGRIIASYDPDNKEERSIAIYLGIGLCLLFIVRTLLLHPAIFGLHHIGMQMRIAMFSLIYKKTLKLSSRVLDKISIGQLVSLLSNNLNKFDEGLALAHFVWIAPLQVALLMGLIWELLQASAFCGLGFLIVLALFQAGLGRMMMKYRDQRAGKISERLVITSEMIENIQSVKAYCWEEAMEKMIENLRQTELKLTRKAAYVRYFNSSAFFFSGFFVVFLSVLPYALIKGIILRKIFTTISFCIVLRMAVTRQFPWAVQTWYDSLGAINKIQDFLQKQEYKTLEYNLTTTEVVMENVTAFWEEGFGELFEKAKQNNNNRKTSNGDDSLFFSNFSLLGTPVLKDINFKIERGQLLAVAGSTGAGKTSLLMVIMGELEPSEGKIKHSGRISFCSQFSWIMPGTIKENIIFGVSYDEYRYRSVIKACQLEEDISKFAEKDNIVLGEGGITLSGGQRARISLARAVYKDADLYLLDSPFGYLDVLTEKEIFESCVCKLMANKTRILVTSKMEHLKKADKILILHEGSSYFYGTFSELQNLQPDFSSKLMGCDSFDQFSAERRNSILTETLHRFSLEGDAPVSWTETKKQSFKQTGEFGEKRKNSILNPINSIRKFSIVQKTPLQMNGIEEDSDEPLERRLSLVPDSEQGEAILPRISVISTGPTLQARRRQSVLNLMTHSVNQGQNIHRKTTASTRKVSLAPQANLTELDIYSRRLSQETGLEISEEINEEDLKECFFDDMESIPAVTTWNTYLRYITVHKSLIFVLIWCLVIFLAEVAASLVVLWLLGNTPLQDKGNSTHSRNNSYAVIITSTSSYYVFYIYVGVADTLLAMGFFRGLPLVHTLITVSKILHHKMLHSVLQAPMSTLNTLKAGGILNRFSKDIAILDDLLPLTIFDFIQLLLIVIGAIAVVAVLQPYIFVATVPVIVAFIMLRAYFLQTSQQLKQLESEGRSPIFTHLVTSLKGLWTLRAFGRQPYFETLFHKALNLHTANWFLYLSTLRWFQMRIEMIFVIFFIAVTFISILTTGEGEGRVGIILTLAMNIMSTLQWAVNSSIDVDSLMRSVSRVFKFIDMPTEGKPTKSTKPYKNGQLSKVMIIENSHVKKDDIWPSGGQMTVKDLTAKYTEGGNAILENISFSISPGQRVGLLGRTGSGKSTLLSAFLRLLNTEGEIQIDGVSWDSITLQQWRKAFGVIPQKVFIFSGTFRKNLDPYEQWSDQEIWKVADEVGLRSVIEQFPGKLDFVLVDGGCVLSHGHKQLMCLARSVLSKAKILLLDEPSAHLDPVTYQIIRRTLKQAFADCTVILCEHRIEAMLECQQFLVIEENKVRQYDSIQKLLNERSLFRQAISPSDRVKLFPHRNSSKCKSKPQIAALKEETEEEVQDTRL
Procedure, shortened: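 Fischer rat thyroid cells co-expressing human wildtype CFTR and the YFP-H148Q/1152L halide sensor were seeded at 20,000 cells per well in 96-well black-walled plates and assayed 48 h later at confluence. After PBS washes and a 15 min incubation, CFTR was maximally activated with an agonist mixture. Fluorescence was recorded for 2 s before and 10 s after adding 160 μL iodide-substituted PBS, and iodide influx rates came from non-linear regression.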

[2] = test system: cellular cAMP production; experiment: Cellular cAMP assayed in CHO-K1 cells, basal and forskolin-stimulated; type: cell-based; conditions: 10 μM; 20 μM forskolin
Experimental: FIG. 3A: Apical membrane current measured in CFTR-expressing FRT cells in the presence of a transepithelial chloride gradient and with amphotericin B permeabilization of the basolateral membrane. CFTR was activated by CPT-cAMP (chlorophenylthio-cAMP) (100 μM), with increasing concentrations of PPQ-102 added as shown. Left: Original recording. Right: Dose-response (S.E. n=4). FIG. 3B: Measurements as in FIG. 3A, but with apigenin (100 μM) or IBMX (100 μM) as agonists. The data are representative of 3 sets of experiments. FIG. 3C: Short-circuit current measured in T84 (left) and human bronchial airway epithelial cells (right). CFTR was maximally activated by 10 μM forskolin and 100 μM IBMX (‘forsk’). Current in the absence of inhibitor is indicated as ‘control.’ FIG. 3D: Calcium-activated chloride channels were activated by UTP (100 μM) in cystic fibrosis (CFTR-deficient) human bronchial epithelial cells, with PPQ-102 added as indicated. ENaC (epithelial sodium channel) was inhibited by amiloride (10 μM). FIG. 3E: Cellular cAMP assayed in CHO—K1 cells under basal conditions and after addition of 20 μM forskolin (S.E. n=4, differences with PPQ-102, not significant).

`Cc1ccc(C2Nc3ccccc3-n3c(-c4ccccc4)c4c(=O)n(C)c(=O)n(C)c4c32)o1` (racemic) [PPQ-102, 7,9-Dimethyl-11-phenyl-6-(5-methylfuran-2-yl)-5,6-dihydro-pyrimido[4′,5′-3,4]pyrrolo[1,2-a]quinoxaline-8,10-(7H,9H)-dione] gave an inhibition at 5 µM ([1]; FRT, Table 2, screening, 5 μM, read-out: % Inhibition at 5 μM) of 85%, an inhibition at 25 µM ([1]; FRT, Table 2, screening, 25 μM, read-out: % Inhibition at 25 μM) of 97% and an IC50 ([1]; apparent IC50 from concentration-inhibition data, fluorescence platereader assay) of 800 nM. For the same molecule, the “effect on basal or forskolin-stimulated cAMP production” value [2] was “no significant effect”.
